Data: patent publication US8383647B2, “Quinoline derivative” (Takeda Pharmaceutical Company Limited, priority 2009, dated 2013)

Assays:
[1] = target: human SLC-1 (Homo sapiens, UniProt Q99705); assay: MCH receptor antagonistic activity (inhibitory activity, Experimental Example 1); type: biochemical
[2] = target: rat SLC-1 (Rattus norvegicus, UniProt P97639); assay: MCH receptor antagonistic activity (inhibitory activity, Experimental Example 1); type: biochemical
Chain of rat SLC-1 (P97639 whole entry): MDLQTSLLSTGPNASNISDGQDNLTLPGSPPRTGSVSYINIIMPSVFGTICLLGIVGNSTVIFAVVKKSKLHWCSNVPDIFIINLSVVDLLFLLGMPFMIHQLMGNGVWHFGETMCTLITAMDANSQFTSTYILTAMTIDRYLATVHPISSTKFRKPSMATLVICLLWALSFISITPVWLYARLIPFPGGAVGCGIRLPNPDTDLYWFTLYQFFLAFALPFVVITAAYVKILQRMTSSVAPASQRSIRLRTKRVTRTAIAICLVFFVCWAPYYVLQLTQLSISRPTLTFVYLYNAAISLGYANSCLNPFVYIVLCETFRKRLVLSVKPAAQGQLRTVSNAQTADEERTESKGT

Chain of human SLC-1 (Q99705 whole entry): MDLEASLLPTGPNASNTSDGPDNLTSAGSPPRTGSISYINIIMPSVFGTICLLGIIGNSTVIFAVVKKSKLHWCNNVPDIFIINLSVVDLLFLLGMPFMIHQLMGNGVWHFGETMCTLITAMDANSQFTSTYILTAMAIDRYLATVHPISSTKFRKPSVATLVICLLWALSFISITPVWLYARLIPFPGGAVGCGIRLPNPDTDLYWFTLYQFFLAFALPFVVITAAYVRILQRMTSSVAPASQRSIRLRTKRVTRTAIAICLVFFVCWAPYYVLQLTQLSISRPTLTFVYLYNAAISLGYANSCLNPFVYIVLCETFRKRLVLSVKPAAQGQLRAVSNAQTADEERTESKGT

Row | Compound | IC50 [1] [nM] | melting point [°C] | IC50 [2] [nM]
1 | Cc1c(NC(=O)c2ccc(OC[C@@H]3CCCO3)cc2)ccc2cc(CN[C@H]3CC[C@H](O)CC3)cnc12 [Example 48, N-(3-{[(trans-4-hydroxycyclohexyl)amino]methyl}-8-methylquinolin-7-yl)-4-[(2S)-tetrahydrofuran-2-ylmethoxy]benzamide] | 9.1 | 183 to 184 | 8.3
2 | Cc1c(NC(=O)c2ccc(OC[C@@H]3CCCO3)cc2)ccc2cc(CN[C@H]3CC[C@@](C)(O)CC3)cnc12 [Example 52, N-(3-{[(cis-4-hydroxy-4-methylcyclohexyl)amino]methyl}-8-methylquinolin-7-yl)-4-[(2S)-tetrahydrofuran-2-ylmethoxy]benzamide] | 6.5 | 159 to 161 | 9.5
3 | Cc1c(NC(=O)c2ccc(OC[C@@H]3CCCO3)cc2)ccc2cc(CNCC3CCOCC3)cnc12 [Example 32, N-(8-methyl-3-{[(tetrahydro-2H-pyran-4-ylmethyl)amino]methyl}quinolin-7-yl)-4-[(2S)-tetrahydrofuran-2-ylmethoxy]benzamide] | 6 | 92 to 94 | 6.4
4 | Cc1c(NC(=O)c2ccc(OC[C@H]3CCCO3)cc2)ccc2cc(CN[C@H]3CC[C@H](O)CC3)cnc12 [Example 40, N-(3-{[(trans-4-hydroxycyclohexyl)amino]methyl}-8-methylquinolin-7-yl)-4-[(2R)-tetrahydrofuran-2-ylmethoxy]benzamide] | 7.7 | 182 to 183 | 13
5 | CC[C@@H](C)NCc1cnc2c(C)c(NC(=O)c3ccc(OC[C@@H]4CCCO4)cc3)ccc2c1 [Example 55, N-[8-methyl-3-({[(1R)-1-methylpropyl]amino}methyl)quinolin-7-yl]-4-[(2S)-tetrahydrofuran-2-ylmethoxy]benzamide] | 6.8 | 118 to 119 | 8.8
6 | Cc1c(NC(=O)c2ccc(OC[C@@H]3CCCO3)cc2)ccc2cc(CNC3CCCC3)cnc12 [Example 36, N-{3-[(cyclopentylamino)methyl]-8-methylquinolin-7-yl}-4-[(2S)-tetrahydrofuran-2-ylmethoxy]benzamide] | 1.7 | 152 to 153 | 3
7 | Cc1c(NC(=O)c2ccc(OCC3CCOC3)cc2)ccc2cc(CNC3CCCC3)cnc12 (stereo not drawn) [Example 16, N-{3-[(cyclopentylamino)methyl]-8-methylquinolin-7-yl}-4-(tetrahydrofuran-3-ylmethoxy)benzamide] | 2.8 | 148 to 149 | 3.2
8 | Cc1c(NC(=O)c2ccc(OC[C@@H]3CCCO3)cc2)ccc2cc(CNC3CCC3)cnc12 [Example 57, N-{3-[(cyclobutylamino)methyl]-8-methylquinolin-7-yl}-4-[(2S)-tetrahydrofuran-2-ylmethoxy]benzamide] | 9.8 | 142 to 144 | 17
9 | CCNCc1cnc2c(C)c(NC(=O)c3ccc(OC[C@@H]4CCCO4)cc3)ccc2c1 [Example 35, N-{3-[(ethylamino)methyl]-8-methylquinolin-7-yl}-4-[(2S)-tetrahydrofuran-2-ylmethoxy]benzamide] | 7.1 | 149 to 151 | 17
10 | Cc1c(NC(=O)c2ccc(OC[C@@H]3CCCO3)cc2)ccc2cc(CNC[C@@H]3CCCO3)cnc12 [Example 29, N-[8-methyl-3-({[(2S)-tetrahydrofuran-2-ylmethyl]amino}methyl)quinolin-7-yl]-4-[(2S)-tetrahydrofuran-2-ylmethoxy]benzamide] | 3.2 | 93 to 94 | 4.6
11 | CCCNCc1cnc2c(C)c(NC(=O)c3ccc(OC[C@@H]4CCCO4)cc3)ccc2c1 [Example 45, N-{8-methyl-3-[(propylamino)methyl]quinolin-7-yl}-4-[(2S)-tetrahydrofuran-2-ylmethoxy]benzamide] | 3.1 | 121 to 122 | 5.8
12 | Cc1c(NC(=O)c2ccc(OC[C@@H]3CCCO3)cc2)ccc2cc(CNCC(C)(C)C)cnc12 [Example 39, N-(3-{[(2,2-dimethylpropyl)amino]methyl}-8-methylquinolin-7-yl)-4-[(2S)-tetrahydrofuran-2-ylmethoxy]benzamide] | 1.8 | 114 to 116 | 2
13 | CCC(CC)NCc1cnc2c(C)c(NC(=O)c3ccc(OC[C@@H]4CCCO4)cc3)ccc2c1 [Example 54, N-(3-{[(1-ethylpropyl)amino]methyl}-8-methylquinolin-7-yl)-4-[(2S)-tetrahydrofuran-2-ylmethoxy]benzamide] | 5.5 | 113 to 115 | 6.1
14 | Cc1c(NC(=O)c2ccc(OC[C@@H]3CCCO3)cc2)ccc2cc(CN[C@H]3CCCC[C@@H]3O)cnc12 [Example 47, N-[3-({[(1S,2S)-2-hydroxycyclohexyl]amino}methyl)-8-methylquinolin-7-yl]-4-[(2S)-tetrahydrofuran-2-ylmethoxy]benzamide] | 6.8 | 157 to 158 | 7.9
15 | Cc1c(NC(=O)c2ccc(OC[C@@H]3CCCO3)cc2)ccc2cc(CN[C@@H]3CCCC[C@H]3O)cnc12 [Example 46, N-[3-({[(1R,2R)-2-hydroxycyclohexyl]amino}methyl)-8-methylquinolin-7-yl]-4-[(2S)-tetrahydrofuran-2-ylmethoxy]benzamide] | 4.5 | 142 to 143 | 6.5
16 | Cc1c(NC(=O)c2ccc(OC[C@@H]3CCCO3)cc2)ccc2cc(CNCCOC(C)C)cnc12 [Example 49, N-[8-methyl-3-({[2-(1-methylethoxy)ethyl]amino}methyl)quinolin-7-yl]-4-[(2S)-tetrahydrofuran-2-ylmethoxy]benzamide] | 4.8 | 111 to 113 | 7.2
17 | Cc1c(NC(=O)c2ccc(OC[C@@H]3CCCO3)cc2)ccc2cc(CNC[C@H]3CCCO3)cnc12 [Example 27, N-[8-methyl-3-({[(2R)-tetrahydrofuran-2-ylmethyl]amino}methyl)quinolin-7-yl]-4-[(2S)-tetrahydrofuran-2-ylmethoxy]benzamide] | 6.3 | 92 to 94 | 7.8

Other lines, results leading:

Row | IC50 [1] [nM] | melting point [°C] | IC50 [2] [nM] | Compound
18 | 6.8 | 140 to 141 | 11 | Cc1c(NC(=O)c2ccc(OC[C@@H]3CCCO3)cc2)ccc2cc(CN[C@H](C)C(C)(C)C)cnc12 [Example 58, N-[8-methyl-3-({[(1R)-1,2,2-trimethylpropyl]amino}methyl)quinolin-7-yl]-4-[(2S)-tetrahydrofuran-2-ylmethoxy]benzamide]
19 | 4.5 | 169 to 174 | 4.3 | Cc1c(NC(=O)c2ccc(OC[C@@H]3CCCO3)cc2)ccc2cc(CN3CCC(C)(O)CC3)cnc12 [Example 72, N-{3-[(4-hydroxy-4-methylpiperidin-1-yl)methyl]-8-methylquinolin-7-yl}-4-[(2S)-tetrahydrofuran-2-ylmethoxy]benzamide]
20 | 5 | 120 to 121 | 8 | CCCNCc1cnc2c(C)c(NC(=O)c3ccc(OC[C@@H]4CCCO4)cc3F)ccc2c1 [Example 71, 2-fluoro-N-{8-methyl-3-[(propylamino)methyl]quinolin-7-yl}-4-[(2S)-tetrahydrofuran-2-ylmethoxy]benzamide]
21 | 7.8 | 167 to 168 | 11 | Cc1c(NC(=O)c2ccc(OC[C@@H]3CCCO3)cc2F)ccc2cc(CNCC(C)(C)O)cnc12 [Example 67, 2-fluoro-N-(3-{[(2-hydroxy-2-methylpropyl)amino]methyl}-8-methylquinolin-7-yl)-4-[(2S)-tetrahydrofuran-2-ylmethoxy]benzamide]
22 | 2.2 | 129 | 2.7 | Cc1c(NC(=O)c2ccc(OCC3CCOC3)cc2)ccc2cc(CNCC(C)(C)C)cnc12 (stereo not drawn) [Example 62, N-(3-{[(2,2-dimethylpropyl)amino]methyl}-8-methylquinolin-7-yl)-4-(tetrahydrofuran-3-ylmethoxy)benzamide]
23 | 6.1 | 171 to 172 | 7.1 | Cc1c(NC(=O)c2ccc(OC[C@@H]3CCCO3)cc2F)ccc2cc(CN[C@H]3CC[C@](C)(O)CC3)cnc12 [Example 69, 2-fluoro-N-(3-{[(trans-4-hydroxy-4-methylcyclohexyl)amino]methyl}-8-methylquinolin-7-yl)-4-[(2S)-tetrahydrofuran-2-ylmethoxy]benzamide]
24 | 2.7 | 133 to 134 | 3.2 | Cc1c(NC(=O)c2ccc(OC[C@@H]3CCCO3)cc2F)ccc2cc(CNCC(C)C)cnc12 [Example 70, 2-fluoro-N-(8-methyl-3-{[(2-methylpropyl)amino]methyl}quinolin-7-yl)-4-[(2S)-tetrahydrofuran-2-ylmethoxy]benzamide]
25 | 3.1 | 134 to 135 | 2.8 | Cc1c(NC(=O)c2ccc(OC[C@@H]3CCCO3)cc2F)ccc2cc(CNCC(C)(C)C)cnc12 [Example 68, N-(3-{[(2,2-dimethylpropyl)amino]methyl}-8-methylquinolin-7-yl)-2-fluoro-4-[(2S)-tetrahydrofuran-2-ylmethoxy]benzamide]
